# Data: patent publication US20240122876A1, “COMPOSITIONS AND METHODS FOR THE TREATMENT OF OCULAR DISORDERS” (Case Western Reserve University, priority 2021, published 2024)
# Where “and” joins values, the source holds several entries; their conditions need not be identical. Identical values can stand only once. Entries after “also recorded” stand apart in the source; their conditions may differ.
# How the values were obtained:
# RPE65 = RPE65 (Bos taurus (Bovine), UniProt Q28175); assay: RPE65 retinoid isomerase activity assay (11-cis-retinol production by bovine RPE microsomes); type: biochemical; settings: for IC50: inhibition of RPE65-mediated isomerization, decline in 11-cis-retinol production, bovine RPE microsomes
# Protocol: After incubation at room temperature for 5 min, the resulting mixture was mixed with half microliter of all-trans-retinol (5 mM) in DMF, and then incubated at 37° C. for 1 h. The reaction was quenched by adding 400 μL of methanol (Fisher Chemical, Fair Lawn, NJ), and the products were extracted with 400 μL of hexanes.
# [1] = Quantification of primary amine compound levels in serum and eyes of mice after intraperitoneal treatment (LC-MS/MS); type: in vivo; settings: mouse, 380 nmol i.p.; for initial plasma (serum) level: 3 h
# Protocol: Eight weeks old BL/6J mice were treated with 380 nmol visual cycle modulator 24, 49, 57, 58, 59 or emixustat in DMSO (50 μL) by intraperitoneal injection, and sacrificed at 3 h, 1 day, or 7 days later. Blood and eyeball samples were collected immediately. After clotting at room temperature for 30 min, the blood samples were centrifuged for 10 minutes at 17,000 g in a temperature-controlled benchtop centrifuge (Eppendorf AG). Each serum sample (100 μL) was carefully removed to avoid disturbing loose clots, precipitated with […] of pre-cooled methanol, and centrifuged at 17,000 g for 15 min at 4° C. The supernatant was carefully transferred to a SpinX centrifuge tube filter with a 0.45 μm cellulose acetate membrane (Costar, Salt Lake City, UT), and centrifuged at 7,000 g for 2 min. Filtered samples were dried under vacuum, reconstituted in 100 μL 50% methanol/water, and centrifuged at 17,000 g for 15 min at 4° C. The resulting supernatants were ready for Liquid Chromatography/Mass Spectrometry analyses. The two eyeballs from each mouse were homogenized in acetonitrile (2×800 μL). The resulting mixture was centrifuged at 17,000 g for 15 min at 4° C. The supernatant was dried under vacuum, reconstituted in 100 μl 50% methanol/water, and centrifuged at 17,000 g for 15 min at 4° C. Twenty microliters of the supernatant extracted from serum or eye samples was injected into an Ultimate 3000 HPLC system coupled with LXQ mass spectrometer (ThermoFisher Scientific, Waltham, MA) with an electrospray ionization unit.
# [2] = RPE65 inhibition, ratio of IC50
# Sequence of RPE65 (Q28175 whole entry): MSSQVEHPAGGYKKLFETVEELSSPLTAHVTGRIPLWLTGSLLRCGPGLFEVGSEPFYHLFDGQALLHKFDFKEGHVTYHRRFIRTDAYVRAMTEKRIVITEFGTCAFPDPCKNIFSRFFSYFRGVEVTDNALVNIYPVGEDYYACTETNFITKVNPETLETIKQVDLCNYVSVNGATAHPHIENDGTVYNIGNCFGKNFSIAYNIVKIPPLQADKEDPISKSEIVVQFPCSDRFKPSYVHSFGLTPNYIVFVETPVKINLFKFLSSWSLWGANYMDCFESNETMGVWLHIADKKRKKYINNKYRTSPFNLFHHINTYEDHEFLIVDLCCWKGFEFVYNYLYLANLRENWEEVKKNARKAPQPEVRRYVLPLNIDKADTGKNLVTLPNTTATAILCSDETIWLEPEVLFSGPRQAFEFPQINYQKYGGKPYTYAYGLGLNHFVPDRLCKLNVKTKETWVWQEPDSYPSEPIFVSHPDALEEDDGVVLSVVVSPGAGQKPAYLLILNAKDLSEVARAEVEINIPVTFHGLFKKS
SMILES,IC50 (RPE65),other results
"[2H]C([2H])(N)CC(O)c1cccc(OCC2CCC(F)(F)CC2)c1 (stereo not shown) [Compound 59, 3-amino-1-(3-((4,4-difluorocyclohexyl)methoxy)phenyl)propan-3,3-d2-1-ol]",269 ± 40 nM,–
"CCCC(CCC)COc1cc([C@H](O)CCN)ccc1F [Compound 24, (R)-3-Amino-1-(4-fluoro-3-((2-propylpentyl)oxy)phenyl)propan-1-ol]",50 ± 9 nM,inhibitory potency / IC50 relative to (R)-MB-004 (RPE65; [2]): twice; also recorded: approximately two-fold lower; inhibitory potency relative to racemic emixustat (RPE65; [2]): 3 times; distribution within ocular tissue [1]: poorest distribution within ocular tissue; plasma half-life [1]: longer plasma half-life; initial plasma (serum) level [1]: highest initial plasma levels
"CCCC(CCC)COc1cccc(C(O)CCN)c1F (racemic) [Compound 30, (S/R)-3-amino-1-(2-fluoro-3-((2-propylpentyl)oxy)phenyl)propan-1-ol]",274 ± 47 nM,–
"CC1=C(COc2cc(C(O)CCN)ccc2F)C(C)(C)CCC1 (stereo not shown) [Compound 53, 3-amino-1-(4-fluoro-3-((2,6,6-trimethylcyclohex-1-en-1-yl)methoxy)phenyl)propan-1-ol]",284 ± 20 nM,–
"CCCC(CCC)COc1cc(F)cc(C(O)CCN)c1 (racemic) [Compound 26, (S/R)-3-amino-1-(3-fluoro-5-((2-propylpentyl)oxy)phenyl)propan-1-ol]",184 ± 24 nM,–
"CCCC(CCC)COc1cc(F)cc(C(O)CCN)c1 (racemic) [Compound 25, (S/R)-3-amino-1-(3-fluoro-5-((2-propylpentyl)oxy)phenyl)propan-1-ol]",295 ± 132 nM,–
"CC1=C(COc2cccc(C(O)CCN)c2F)C(C)(C)CCC1 (stereo not shown) [Compound 56, 3-amino-1-(2-fluoro-3-((2,6,6-trimethylcyclohex-1-en-1-yl)methoxy)phenyl)propan-1-ol]",169 ± 13 nM,–
"CCCC(CCC)COc1cc([C@@H](O)CCN)ccc1F [Compound 23, (S)-3-Amino-1-(4-fluoro-3-((2-propylpentyl)oxy)phenyl)propan-1-ol]",177 ± 11 nM,–
"CC1=C(COc2ccc(F)c(C(O)CCN)c2)C(C)(C)CCC1 (stereo not shown) [Compound 55, 3-amino-1-(2-fluoro-5-((2,6,6-trimethylcyclohex-1-en-1-yl)methoxy)phenyl)propan-1-ol]",124 ± 21 nM,–
"NCCC(O)c1cccc(OCC2CCC(F)(F)CC2)c1 (stereo not shown) [Compound 57, 3-amino-1-(3-((4,4-difluorocyclohexyl)methoxy)phenyl) propan-1-ol]",100 nM and 103 nM,distribution within ocular tissue [1]: further enhanced ocular distribution
"NCCC(O)c1cc(F)cc(OCC2CCCCC2)c1 (stereo not shown) [Compound 50, 3-amino-1-(3-(cyclohexylmethoxy)-5-fluorophenyl)propan-1-ol]",201 ± 23 nM,–
"CCCC(CCC)COc1cccc(C(O)CCN)c1F (racemic) [Compound 29, (S/R)-3-amino-1-(2-fluoro-3-((2-propylpentyl)oxy)phenyl)propan-1-ol]",287 ± 283 nM,–
"CCCC(CCC)COc1cccc([C@H](O)CCN)c1 [(R)-MB-004, reference compound]",106 ± 16 nM,–
"NCCC(O)c1ccc(F)c(OCC2CCCCC2)c1 (stereo not shown) [Compound 49, 3-amino-1-(3-(cyclohexylmethoxy)-4-fluorophenyl)propan-1-ol]",95 ± 5 nM,distribution within ocular tissue [1]: poorest distribution within ocular tissue; initial plasma (serum) level [1]: highest initial plasma levels
"CC1=C(COc2cc(F)cc(C(O)CCN)c2)C(C)(C)CCC1 (stereo not shown) [Compound 54, 3-amino-1-(3-fluoro-5-((2,6,6-trimethylcyclohex-1-en-1-yl)methoxy)phenyl)propan-1-ol]",292 ± 89 nM,–
"NCCC(O)c1cccc(OCC2CCCCC2)c1F (stereo not shown) [Compound 52, 3-amino-1-(3-(cyclohexylmethoxy)-2-fluorophenyl)propan-1-ol]",358 ± 42 nM,–
"CC1=C(COc2cccc([C@H](O)CCN)c2)C(C)(C)CCC1 [(R)-MB-001, reference compound]",323 ± 145 nM,–
"CCCC(CCC)COc1ccc(F)c(C(O)CCN)c1 (racemic) [Compound 28, (S/R)-3-amino-1-(2-fluoro-5-((2-propylpentyl)oxy)phenyl)propan-1-ol]",132 ± 19 nM,–
"NCCC(O)c1cc(OCC2CCCCC2)ccc1F (stereo not shown) [Compound 51, 3-amino-1-(5-(cyclohexylmethoxy)-2-fluorophenyl)propan-1-ol]",145 ± 9 nM,–
"CCCC(CCC)COc1ccc(F)c(C(O)CCN)c1 (racemic) [Compound 27, (S/R)-3-amino-1-(2-fluoro-5-((2-propylpentyl)oxy)phenyl)propan-1-ol]",157 ± 24 nM,–
